# According to patent publication US20180193412A1, “Method of In Vivo Treatment” (Hexima Limited, priority 2015, published 2018):
# How the values were obtained:
# T. rubrum = test: Inhibition of growth of Trichophyton rubrum by plant defensins (microtitre A595 antifungal assay); type: cell-based; conditions: ½ strength PDB, 30° C.
# Method: (§1) The inhibitory effects of the plant defensins on the growth of Trichophyton rubrum, T. interdigitale, Microsporum fulvum and C. albicans (all obtained from the National Mycology Reference Centre, South Australia Pathology at the Women's and Children's Hospital, Adelaide, Australia) are measured essentially as described by Broekaert et al. (1990) FEMS Microbiol Lett 69:55-59.
# (§2) Spores of T. rubrum, T. interdigitale and M. fulvum are isolated from sporulating fungus growing on ½ strength Sabouraud dextrose agar. Spores were removed from the plates by the addition of ½ strength potato dextrose broth (PDB). C. albicans cells are grown in Yeast Peptone Broth (YPD) for 16 h. Spore and cell concentrations are measured using a hemocytometer.
# (§3) Antifungal assays are conducted in 96 well microtitre plates essentially as herein described. Wells are loaded with 20 μL of filter sterilized (0.22 Ξ m syringe filter, Millipore) defensin (10× stock for each final concentration) or water and 80 μL of 5×10^4 spores/mL (T. rubrum, T. interdigitale, M. fulvum) or 5,000 cells/mL (C. albicans) in ½ strength PDB. The plates are incubated at 30° C. Fungal growth is assayed by measuring optical density at 595 nm (A595) using a microtitre plate reader (SpectraMax Pro M2; Molecular Devices. Growth is allowed to proceed until the optical density (OD) of the fungus in the absence of any test defensin reached an OD of 0.2. Each test is performed in duplicate.
# M. fulvum = test: Inhibition of growth of Microsporum fulvum by plant defensins (microtitre A595 antifungal assay); type: cell-based; conditions: ½ strength PDB, 30° C., A595
# Method: as §1, §2, §3
# [1] = test system: clinical isolates of T. rubrum; test: Cell survival assay for clinical isolates of T. rubrum (plating on agar after defensin treatment, FIG. 3); type: cell-based, Trichophyton rubrum
# Method: FIG. 3(A) is a photographic representations of surviving colonies of T. rubrum clinical isolate 14-01 grown on agar plates after treatment with 100 μM HXL008 for 72 h.
# FIG. 3(B) is a photographic representation of surviving colonies of T. rubrum clinical isolate 14-02 grown on agar plates after treatment with 100 μM HXL008 for 72 h.
# FIG. 3(C) is a photographic representation of surviving colonies of T. rubrum clinical isolate 14-03 grown on agar plates after treatment with 100 μM HXL008 for 72 h.
# FIG. 3(D) is a photographic representation of surviving colonies of T. rubrum clinical isolate 13-04 grown on agar plates after treatment with 100 μM HXL008 for 72 h.
# After incubation for 72 h, the media from wells containing clinical isolates of T. rubrum incubated with 100 […] HXL008 was plated onto fresh Sabouraud dextrose agar. Plates were incubated at 30° C. for 5 days to allow colonies to develop before being photographed.
# C. albicans = test: Inhibition of growth of Candida albicans, Example 2 antifungal assay; type: cell-based; conditions: Table 4; ½ strength PDB, 30° C., A595
# Method: (§4) The inhibitory effects of the plant defensins on the growth of Candida albicans, Aspergillus fumigatus (obtained from the National Mycology Reference Centre, South Australia Pathology at the Women's and Children's Hospital, Adelaide, Australia), C. glabrata, C. tropicalis, A. flavus, A. niger, A. fumigants, Cryptococcus neoformans and C. gattii (obtained from Dee Carter, University of Sydney, New South Wales, Australia) are measured essentially as described by Broekaert et al. (1990) FEMS Microbiol Lett 69:55-59.
# (§5) Spores of A. flavus. A. niger and A. fumigatus are isolated from sporulating fungus growing on ½ strength Sabouraud dextrose agar. Spores were removed from the plates by the addition of ½ strength potato dextrose broth (PDB). C. albicans, C. glabrata, C. tropicalis, C. neoformans and C. gattii cells are grown in Yeast Peptone Broth (YPD) for 16 h. Spore and cell concentrations are measured using a hemocytometer.
# as §3, with “μm” for “Ξ m”, “(A. flavus, A. niger, A. fumigatus),” for “(T. rubrum, T. interdigitale, M. fulvum) or”, “albicans, C. glabrata, C. tropicalis) or 1×10^6 cells/mL (C. neoformans, C. gattii)” for “albicans)”
# C. glabrata = test: Inhibition of growth of C. glabrata, Example 2 antifungal assay; type: cell-based; conditions: ½ strength PDB, 30° C., A595
# Method: as §4, §5
# as §3, with “μm” for “Ξ m”, “(A. flavus, A. niger, A. fumigatus),” for “(T. rubrum, T. interdigitale, M. fulvum) or”, “albicans, C. glabrata, C. tropicalis) or 1×10^6 cells/mL (C. neoformans, C. gattii)” for “albicans)”
# C. tropicalis = test: Inhibition of growth of C. tropicalis, Example 2 antifungal assay; type: cell-based; conditions: ½ strength PDB, 30° C., A595
# Method: as §4, §5
# as §3, with “μm” for “Ξ m”, “(A. flavus, A. niger, A. fumigatus),” for “(T. rubrum, T. interdigitale, M. fulvum) or”, “albicans, C. glabrata, C. tropicalis) or 1×10^6 cells/mL (C. neoformans, C. gattii)” for “albicans)”
# A. flavus = test: Inhibition of growth of A. flavus, Example 2 antifungal assay; type: cell-based; conditions: ½ strength PDB, 30° C., A595
# Method: as §4, §5
# as §3, with “μm” for “Ξ m”, “(A. flavus, A. niger, A. fumigatus),” for “(T. rubrum, T. interdigitale, M. fulvum) or”, “albicans, C. glabrata, C. tropicalis) or 1×10^6 cells/mL (C. neoformans, C. gattii)” for “albicans)”
# A. niger = test: Inhibition of growth of A. niger, Example 2 antifungal assay; type: cell-based; conditions: ½ strength PDB, 30° C., A595
# Method: as §4, §5
# as §3, with “μm” for “Ξ m”, “(A. flavus, A. niger, A. fumigatus),” for “(T. rubrum, T. interdigitale, M. fulvum) or”, “albicans, C. glabrata, C. tropicalis) or 1×10^6 cells/mL (C. neoformans, C. gattii)” for “albicans)”
# C. gattii = test: Inhibition of growth of C. gattii, Example 2 antifungal assay; type: cell-based; conditions: ½ strength PDB, 30° C., A595
# Method: as §4, §5
# as §3, with “μm” for “Ξ m”, “(A. flavus, A. niger, A. fumigatus),” for “(T. rubrum, T. interdigitale, M. fulvum) or”, “albicans, C. glabrata, C. tropicalis) or 1×10^6 cells/mL (C. neoformans, C. gattii)” for “albicans)”
# E. coli = type: cell-based, Escherichia coli
# Summary of the method: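 Overnight LB cultures were diluted to OD600 0.01 in Mueller-Hinton broth and exposed to defensins at 20, 10, 5, 2.5, 1.25, 0.625 or 0.3125 μM. OD595 was read at time zero and after 18 h at 37 °C to assess growth.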
# B. subtilis = test: Inhibition of the growth of Bacillus subtilis (OD595, 18 hours); type: cell-based; conditions: at the concentrations tested (0.3125-20 μM)
# Method: A single E. coli or B. subtilis colony was used to inoculate 5 ml of Luria-Bertani media and grown overnight at 37° C. The following day, the optical density of the culture was measured and the bacteria diluted to an optical density at 600 nm (OD600) of 0.01 in Mueller-Hinton Broth. Diluted E. coli or B. subtilis were added to 96-well plates with defensins at concentrations of 20 μM, 10 μM, 5 μM, 2.5 μM, 1.25 μM, 0.625 μM or 0.3125 μM. Plates were read at OD595 to obtain time zero data points. Plates were incubated at 37° C. for 18 hours before reading again at OD595 to assess the amount of bacterial growth.
substance,measurement,setting,value
HXL008: Class I plant defensin from Picramnia pentandra (KVCTKPSKFFKGLCGTDGACTTACRKEGLHSGYCQLKGFLNSVCVCRKHC; HXL008 Picramnia pentandra),IC50 against T. rubrum,T. rubrum,3 µg/mL
same,IC50 against M. fulvum,M. fulvum,7 µg/mL
same,Surviving colonies on agar plates after incubation with defensin,"[1]; 100 µg/mL HXL008 for 72 h, plated, 30° C. for 5 days",1-3 colonies
same,Cell survival of T. rubrum clinical isolates,[1]; incubated with HXL008 for 72 h,almost all the cells were dead
same,IC50 against C. albicans,C. albicans,20 µg/mL
same,IC50 against C. glabrata,C. glabrata,20 µg/mL
same,IC50 against C. tropicalis,C. tropicalis,7 µg/mL
same,IC50 against A. flavus,A. flavus,40 µg/mL
same,IC50 against A. niger,A. niger,42 µg/mL
same,IC50 against C. gattii,C. gattii,12 µg/mL
same,IC50,"E. coli; Mueller-Hinton Broth, 37° C., 18 hours, up to 20 μM, read-out: IC50 against E. coli",> 20 µM
same,Inhibition of growth of E. coli,E. coli; at the concentrations tested (0.3125-20 μM),did not inhibit the growth
same,Inhibition of growth of B. subtilis,B. subtilis,did not inhibit the growth
